According to PubChem BioAssay AID1963862 (Molecular Pharmacology Branch, DTP, NCI, 2024):

Tested on: KRAS patient-derived spheroids with HUVEC/MSC, viability
Test: Anticancer human tumor 941728-121-R-J1-PDC patient-derived lung adenocarcinoma cell line growth inhibition [KRAS2]
Details: for IC50: curve of first compound; for viability, T/C: stronger effect = lower value
How it was run: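 Combination screen of spheroid viability in tumor-cell co-cultures with endothelial (HUVEC) and mesenchymal stem cell stroma. Each agent was tested in half-log dilutions, topping at clinical Cmax or at 10 microM without a known Cmax.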

[1] = second compound 0.0316 µM, first compound 0.0316 µM
[2] = second compound 0.0316 µM, first compound 0.1 µM
[3] = second compound 0.0316 µM, first compound 0.316 µM
[4] = second compound 0.0316 µM, first compound 1 µM
[5] = second compound 0.0316 µM, first compound 3.16 µM
[6] = second compound 0.0316 µM, first compound 10 µM
[7] = second compound 0.1 µM, first compound 0.0316 µM
[8] = second compound 0.1 µM, first compound 0.1 µM
[9] = second compound 0.1 µM, first compound 0.316 µM
[10] = second compound 0.1 µM, first compound 1 µM
[11] = second compound 0.1 µM, first compound 3.16 µM
[12] = second compound 0.1 µM, first compound 10 µM
[13] = second compound 0.316 µM, first compound 0.0316 µM
[14] = second compound 0.316 µM, first compound 0.1 µM
[15] = second compound 0.316 µM, first compound 0.316 µM
[16] = second compound 0.316 µM, first compound 1 µM
[17] = second compound 0.316 µM, first compound 3.16 µM
[18] = second compound 0.316 µM, first compound 10 µM
[19] = second compound 1 µM, first compound 0.0316 µM
[20] = second compound 1 µM, first compound 0.1 µM
[21] = second compound 1 µM, first compound 0.316 µM
[22] = second compound 1 µM, first compound 1 µM
[23] = second compound 1 µM, first compound 3.16 µM
[24] = second compound 1 µM, first compound 10 µM
[25] = second compound 3.16 µM, first compound 0.0316 µM
[26] = second compound 3.16 µM, first compound 0.1 µM
[27] = second compound 3.16 µM, first compound 0.316 µM
[28] = second compound 3.16 µM, first compound 1 µM
[29] = second compound 3.16 µM, first compound 3.16 µM
[30] = second compound 3.16 µM, first compound 10 µM
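Further: spheroids exposed to agents for seven days before readout.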

Row | SMILES | IC50 (second compound 0.0316 µM) | IC50 (second compound 0.1 µM) | IC50 (second compound 0.316 µM) | IC50 (second compound 1 µM) | IC50 (second compound 3.16 µM) | viability, T/C [1] | viability, T/C [2] | viability, T/C [3] | viability, T/C [4] | viability, T/C [5] | viability, T/C [6] | viability, T/C [7] | viability, T/C [8] | viability, T/C [9] | viability, T/C [10] | viability, T/C [11] | viability, T/C [12] | viability, T/C [13] | viability, T/C [14] | viability, T/C [15] | other results
1 | COc1cc(Nc2ncc3c(n2)-c2ccc(Cl)cc2C(c2c(F)cccc2OC)=NC3)ccc1C(=O)O + C=CC(=O)N1CCN(c2nc(OCC3CCCN3C)nc3c2CCN(c2cccc4cccc(C)c24)C3)CC1CC#N | < 31.6 nM | < 31.6 nM | < 31.6 nM | < 31.6 nM | < 31.6 nM | 32.1% | 29.5% | 26.1% | 26.3% | 22.9% | 20.3% | 33.6% | 30.4% | 25.6% | 25.9% | 22.8% | 20.9% | 30.4% | 26.1% | 26.8% | viability, T/C [16]: 26.1%; viability, T/C [17]: 22%; viability, T/C [18]: 20.3%; viability, T/C [19]: 26.5%; viability, T/C [20]: 26.3%; viability, T/C [21]: 27.1%; viability, T/C [22]: 22.9%; viability, T/C [23]: 23%; viability, T/C [24]: 16.5%; viability, T/C [25]: 0.53%; viability, T/C [26]: 0.41%; viability, T/C [27]: 0.87%; viability, T/C [28]: 0.19%; viability, T/C [29]: 0.26%; viability, T/C [30]: 0.18%
2 | COc1cc2nccc(Oc3ccc(NC(=O)C4(C(=O)Nc5ccc(F)cc5)CC4)cc3)c2cc1OC + C=CC(=O)N1CCN(c2nc(OCC3CCCN3C)nc3c2CCN(c2cccc4cccc(C)c24)C3)CC1CC#N | < 31.6 nM | < 31.6 nM | < 31.6 nM | < 31.6 nM | < 31.6 nM | 17.9% | 18% | 15.1% | 13.3% | 7.03% | 7.62% | 14.3% | 15.8% | 15.3% | 13.3% | 5.66% | 6.73% | 15.4% | 16.3% | 13.1% | viability, T/C [16]: 13.7%; viability, T/C [17]: 4.32%; viability, T/C [18]: 5.26%; viability, T/C [19]: 14.2%; viability, T/C [20]: 14.5%; viability, T/C [21]: 10.5%; viability, T/C [22]: 7.23%; viability, T/C [23]: 1.37%; viability, T/C [24]: 0.49%; viability, T/C [25]: 0.1%; viability, T/C [26]: 0.12%; viability, T/C [27]: 0.12%; viability, T/C [28]: 0.09%; viability, T/C [29]: 0.09%; viability, T/C [30]: 0.19%
3 | O=C(c1cc(Cc2n[nH]c(=O)c3ccccc23)ccc1F)N1CCN(C(=O)C2CC2)CC1 + C=CC(=O)N1CCN(c2nc(OCC3CCCN3C)nc3c2CCN(c2cccc4cccc(C)c24)C3)CC1CC#N | < 31.6 nM | < 31.6 nM | < 31.6 nM | < 31.6 nM | < 31.6 nM | 36.5% | 36.5% | 59.6% | 29.1% | 26.9% | 36.2% | 32.3% | 33.3% | 30.5% | 32.5% | 30.6% | 35.4% | 36.1% | 33.7% | 33.3% | viability, T/C [16]: 33.7%; viability, T/C [17]: 33.9%; viability, T/C [18]: 34.2%; viability, T/C [19]: 32.6%; viability, T/C [20]: 36.2%; viability, T/C [21]: 35.2%; viability, T/C [22]: 32.8%; viability, T/C [23]: 32%; viability, T/C [24]: 35.7%; viability, T/C [25]: 0.38%; viability, T/C [26]: 4.45%; viability, T/C [27]: 1.13%; viability, T/C [28]: 0.34%; viability, T/C [29]: 0.38%; viability, T/C [30]: 0.53%
